From PMC10947197, “Acid‐Resistant BODIPY Amino Acids for Peptide‐Based Fluorescence Imaging of GPR54 Receptors in Pancreatic Islets” (Angewandte Chemie (International Ed. in English), 2023)
Each block holds one molecule with its values, some of them ahead of it. Numbered stars: 1 amine (or outer) side, 2 acyl side, 3 side chain; on linkers, the order of the positions; unused ones are H or OH. Square brackets hold non-standard residues; d marks the D form. Peptide text beside a SMILES is read from it. X1 = CC1=CC(C)=[N+]2C1=C(c1cccc(-c3[nH]c4ccccc4c3C[C@H](N[*:1])C(=O)[*:2])c1)c1c(C)cc(C)n1[B-]2(C#N)C#N

Experiments:
[1] = target: T1, hGPR54 (Homo sapiens, UniProt Q969F8); assay: Calcium mobilization assay in HEK293 cells stably expressing hGPR54; format: cell-based; conditions: HEK293 cells stably expressing hGPR54, 50,000 cells per well, Fluo4 NW Ca2+ assay kit, GraphPad Prism 9 sigmoidal fit; read-out: EC50 (Ca2+ influx, agonist)
T1 construct: expressed in transfected cells

[2] = Integrity of BODIPY core in crude peptides after cleavage with 95% TFA (HPLC-MS); format: physicochemical; conditions: crude peptide
Excerpt: To study the application of Trp‐BODIPY PLUS for SPPS of fluorogenic peptides, we first prepared analogues of the model linear sequence KYRAE, which contains a range of non‐polar, positively‐charged and negatively‐charged residues with different PGs (e.g., Boc, tBu, Pbf). We performed the synthesis using standard Fmoc/tBu SPPS conditions (e.g., OxymaPure and 1‐ cyano‐2‐ethoxy‐2‐oxoethylidenaminooxy)dimethylamino‐mor‐pholino‐carbenium hexafluorophosphate (COMU) for couplings, piperidine:DMF (2 : 8) for Fmoc removal) and introduced Trp‐BODIPY PLUS at the N‐terminal end. We performed the cleavage of the labeled peptide (i.e., W(BODIPYplus)KYRAE, peptide 4, Figure 1) with 95 % TFA and compared the purity of the crude to that obtained when using the acid‐labile Trp‐BODIPY (i.e., W(BODIPY)KYRAE, peptide 5, Figure 1). […] Overall, we isolated the model peptide 4 in good yields >20 % and >95 % purity after HPLC purification (see Supporting Information for synthetic and characterization details).

[3] = tested on: apoptotic cells; conditions: ref [10e]; cited from earlier work
Excerpt: Next, we assessed whether incorporation of Trp‐BODIPY PLUS enabled retention of the molecular recognition features of bioactive peptides. […] Because Apo‐15 contains one Trp‐BODIPY residue within its sequence, we synthesized the corresponding analogue using Trp‐BODIPY PLUS as the FlAA.

[4] = Stability analysis of Trp-BODIPY FlAAs under SPPS conditions; conditions: r.t.; for Stability (purity by HPLC-MS): 70 μM; for Chemical stability (HPLC-MS): 70 µM;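 as to all read-outs here: chemical integrity of the BODIPY-labelled tryptophan amino acids checked after exposure to reagents used in solid-phase peptide synthesis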
Procedure: Next, we studied the stability of Trp‐BODIPY PLUS in TFA and compared it to that of Trp‐BODIPY (Table 2).
Analysis of t he chemical st abilit y of T rp-BO DI PY and T rp-
BODIPY PLUS under conve nt ion al SPPS condit i ons. Amino aci ds were di lut ed w it h
dif f erent rea gent mixt ur es (70 µ M , f inal v olum e 10 0 uL) a nd st irre d at r. t . f or 1 h
( c ondit i ons A-B and E-H) or 5 m i n ( c o ndit i ons C an d D).
Fmoc-T rp -BO DI PY(X)2-OH
En t ry Conditions X = F X = CN

T1 sequence (Q969F8 whole entry): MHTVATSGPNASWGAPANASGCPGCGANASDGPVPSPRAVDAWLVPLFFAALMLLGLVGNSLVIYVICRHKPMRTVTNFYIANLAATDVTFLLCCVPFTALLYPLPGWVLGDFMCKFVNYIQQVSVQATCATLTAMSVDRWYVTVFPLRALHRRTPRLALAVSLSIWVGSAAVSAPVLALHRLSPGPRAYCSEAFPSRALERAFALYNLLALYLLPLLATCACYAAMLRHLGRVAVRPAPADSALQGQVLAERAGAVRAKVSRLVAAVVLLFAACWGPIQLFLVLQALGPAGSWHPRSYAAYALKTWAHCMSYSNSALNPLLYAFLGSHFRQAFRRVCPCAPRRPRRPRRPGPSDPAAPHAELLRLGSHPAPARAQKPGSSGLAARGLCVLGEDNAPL

Molecule: CC1=CC(C)=[N+]2C1=C(c1cccc(-c3[nH]c4ccccc4c3C[C@H](NC(=O)[C@H](CC(N)=O)NC(=O)[C@@H](N)Cc3ccc(O)cc3)C(=O)N[C@@H](CC(N)=O)C(=O)N[C@@H](CO)C(=O)N[C@@H](Cc3ccccc3)C(=O)NCC(=O)N[C@@H](CC(C)C)C(=O)N[C@@H](CCCNC(=N)N)C(=O)N[C@@H](Cc3ccccc3)C(N)=O)c1)c1c(C)cc(C)n1[B-]2(C#N)C#N [peptide 7] (H-YN[X1]NSFGLRF-NH2)
- EC50 [1]: 2.5 nM

Molecule: cyclo(GRKKWFW(BODIPY)) (head to tail) [Apo-15]
- Ca2+ dependence of apoptotic cell labelling (in words) [3]: independent on the concentration of Ca^2+ ions
- Selective labelling of apoptotic cells (in words) [3]: fluorogenic probe for selective labeling of apoptotic cells

Molecule: CC(C)C[C@H](NC(=O)CNC(=O)[C@H](Cc1ccccc1)NC(=O)[C@H](CO)NC(=O)[C@H](CC(N)=O)NC(=O)[C@H](Cc1c[nH]c2ccccc12)NC(=O)[C@H](CC(N)=O)NC(=O)[C@@H](N)Cc1ccc(O)cc1)C(=O)N[C@@H](CCCNC(=N)N)C(=O)N[C@@H](Cc1ccccc1)C(N)=O [KP-10, reference compound]
- EC50 [1]: 0.22 nM

Now from value to molecule:

- Stability of BODIPY core after cleavage (in words) [2]: completely degraded
Molecule: W(BODIPY)KYRAE [peptide 5, model linear peptide KYRAE with acid-labile Trp-BODIPY at the N-terminal end]

- Stability (purity by HPLC-MS) ([4]; 2% N2H4 in DMF, 60 min): > 95%
- Stability (purity by HPLC-MS) ([4]; 95% TFA, 2.5% DTT, 60 min, DCM): < 5%
- Stability (purity by HPLC-MS) ([4]; 95% TFA, 2.5% H2O, 60 min, DCM): < 5%
- Stability (purity by HPLC-MS) ([4]; 95% TFA, 2.5% TIS, 60 min, DCM): < 5%
- Stability (purity by HPLC-MS) ([4]; 95% TFA, 5 min, DCM): < 5%
- Stability (purity by HPLC-MS) ([4]; 95% TFA, 60 min, DCM): < 5%
- Stability (purity by HPLC-MS) ([4]; I2 (5 eq) in MeOH, 60 min): 38%
- Stability (purity by HPLC-MS) ([4]; Pd(PPh3)4 (0.1 eq), PhSiH3 (10 eq), 60 min, DCM): > 95%
- Chemical stability (HPLC-MS) ([4]; Supplementary Table 2 entry A: 1% TFA, 2.5% DTT, 1 h): > 95%
- Chemical stability (HPLC-MS) ([4]; Supplementary Table 2 entry B: 5% TFA, 2.5% DTT, 1 h): 34%
- Chemical stability (HPLC-MS) ([4]; Supplementary Table 2 entry C: 95% TFA, 2.5% DTT, 5 min): 7%
- Chemical stability (HPLC-MS) ([4]; Supplementary Table 2 entry D: 20% piperidine: DMF, 5 min): > 95%
- Chemical stability (HPLC-MS) ([4]; Supplementary Table 2 entry E: 5% NaHCO3 (aq), 1 h): > 95%
- Chemical stability (HPLC-MS) ([4]; Supplementary Table 2 entry F: 5% Na2CO3 (aq), 1 h): > 95%
- Chemical stability (HPLC-MS) ([4]; Supplementary Table 2 entry G: 1% DIPEA: DMF, 1 h): > 95%
- Chemical stability (HPLC-MS) ([4]; Supplementary Table 2 entry H: 0.1 M HOBt: TFE, 1 h): > 95%
- Stability (purity by HPLC-MS) ([4]; TBAF (3 eq), 60 min, DCM): > 95%
Molecule: CC1=CC(C)=[N+]2C1=C(c1cccc(-c3[nH]c4ccccc4c3C[C@H](NC(=O)OCC3c4ccccc4-c4ccccc43)C(=O)O)c1)c1c(C)cc(C)n1[B-]2(F)F [Trp-BODIPY, reference compound]

- Stability of BODIPY core after cleavage (in words) [2]: remained fully stable
Molecule: W(BODIPYplus)KYRAE [peptide 4, model linear peptide KYRAE with Trp-BODIPY PLUS at the N-terminal end]
